Read-outs that look alike come from different tables or passages of the source.
Tested on: A375 Sensitive cells
Experiment: Viability test, trypan blue exclusion, A375 Sensitive cells
Type: cell-based, human
Conditions: Homo sapiens, A-375, viable cells as percentage of DMSO control
Excerpt: Different melanoma cell lines were purchased from the American Tissue Culture Collection: A375 and WM9 cells are mutated on B-Raf, CDKN2A and PTEN proteins; SKmel28 cells are mutated on B-Raf and P53 proteins; 1205Lu cells are mutated on B-Raf and PTEN proteins; G-361 cells are mutated on B-Raf and CDKN2A proteins; C8161 cells are mutated on B-Raf and K-Ras proteins; WM3912 cells are mutated on B-Raf and CDKN2A proteins; MeWo cells are mutated on P53 and CDKN2A proteins; WM3918 presents no mutations on characteristic proteins.
For trypan blue staining, […] of cells (melanoma and normal human cells) were aseptically transferred to a 1.5 mL clear Eppendorf tube and incubated for 3 min at room temperature with an equal volume of 0.4% trypan blue solution. Viable cells were counted and the results are expressed as the percentage of the value of control cells. All the experiments are performed 3 times in triplicate.
A375 Sensitive cells were treated with different concentrations of the synthesized molecules (5.0 μM or 10 μM) for different times (24 hr or 48 hr) or with DMSO (Control) for 12 or 48 hr. At the end of the stimulation, viable cells were counted using the trypan blue dye exclusion method. The results are normalized as percentages compare to the control.
A375 Sensitive cells were treated with 5 μM of CRO15 for different times (2 hr, 4 hr, 6 hr, 8 hr, 12 hr, 24 hr or 48 hr) or with 5 μM of PLX4032 (B-Raf inhibitor) for 48 hr or with DMSO (Control) for 48 hr. At the end of stimulation, viable cells were counted using the trypan blue dye exclusion method. The results are normalized as percentages compare to the control and data means±SEM of three independent experiments performed in triplicate *p<0.05; **p<0.01; ***p<0.001.
A375 Sensitive cells were treated with different concentrations of CRO15 (0.5 μM, 2.5 μM, 5.0 μM, 7.5 μM, 50 μM) for 48 hr or with 5 μM of PLX4032 (B-Raf inhibitor) for 48 hr or with DMSO (Control) for 48 hr. At the end of the stimulation, viable cells were counted using the trypan blue dye exclusion method. The results are normalized as percentages compare to the control and data means±SEM of three independent experiments performed in triplicate *p<0.05; **p<0.01; ***p<0.001.
A375 sensitive and resistant melanoma cells were treated with 5 μM of CRO15 for 48 hr or with 5 μM of PLX4032 for 48 hr or with DMSO (Control). At 48 hours, viable cells were counted using the trypan blue dye exclusion method. The results are normalized as percentages compare to the control and data means±SEM of three independent experiments performed in triplicate *p<0.05; **p<0.01; ***p<0.001.

[1] = 24 h, read-out: Viab A375 5 μM/ 24 h
[2] = 48 h, read-out: Viab A375 5 μM/ 48 h
[3] = 24 h, read-out: Viab A375 10 μM/ 24 h
[4] = 48 h, read-out: Viab A375 10 μM/ 48 h

SMILES | viability at 5 µM [1] [%] | viability at 5 µM [2] [%] | viability at 10 µM [3] [%] | viability at 10 µM [4] [%]
Nc1nc(Nc2ccccc2SSc2ccccc2Nc2nc(N)nc(-c3ccccn3)n2)nc(-c2ccccn2)n1 [MTF 321, N2,N2′-(disulfanediylbis(2,1-phenylene))bis(6-(pyridin-2-yl)-1,3,5-triazine-2,4-diamine)] | 59.7 | 34.5 | 53.8 | 32.1
N=C(NC(=N)c1cscc1Br)Nc1nc2ccccc2s1 [MTF 387, N—(N-(benzo[d]thiazol-2-yl)carbamimidoyl)-4-bromothiophene-3-carboximidamide] | 70.1 | 56.2 | 67.8 | 55.6
Nc1cccc(-c2nc(N)nc(Nc3ccccc3SSc3ccccc3Nc3nc(N)nc(-c4cccc(N)c4)n3)n2)c1 [MTF 460, N2,N2′-(disulfanediylbis(2,1-phenylene))bis(6-(3-aminophenyl)-1,3,5-triazine-2,4-diamine)] | 61.9 | 69.5 | 64.5 | 38.6
N=C(NC(=N)c1ccnc(Br)c1)Nc1nc2ccccc2s1 [MTF 386, N—(N-(benzo[d]thiazol-2-yl)carbamimidoyl)-2-bromoisonicotinimidamide] | 28.9 | 6.6 | 18.1 | 3.7
Nc1nc(Nc2ccccc2SSc2ccccc2Nc2nc(N)nc(-c3cc4c(cc3Br)OCO4)n2)nc(-c2cc3c(cc2Br)OCO3)n1 [MTF 458, N2,N2′-(disulfanediylbis(2,1-phenylene))bis(6-(6-bromobenzo[d][1,3]dioxol-5-yl)-1,3,5-triazine-2,4-diamine)] | 58.7 | 86.8 | 46.5 | 104
Cc1csc(NC(=N)NC(=N)c2cccc(Br)c2)n1 [MTF 288, 3-bromo-N—(N-(4-methylthiazol-2-yl)carbamimidoyl)benzimidamide] | 50 | 96.7 | 70 | 53.5
Nc1nc(Cc2ccccc2)nc(Nc2ccccc2SSc2ccccc2Nc2nc(N)nc(Cc3ccccc3)n2)n1 [MTF 333] | 94.9 | 35.4 | 28.7 | 24.1
N=C(NC(=N)c1ccc(I)cc1)Nc1nc2ccccc2s1 [MTF 247, N—(N-(benzo[d]thiazol-2-yl)carbamimidoyl)-4-iodobenzimidamide] | 100 | 135 | 122 | 100
N=C(NC(=N)c1ccncc1)Nc1nc(-c2cccc([N+](=O)[O-])c2)cs1 [MTF 261, N—(N-(4-(3-nitrophenyl)thiazol-2-yl)carbamimidoyl)isonicotinimidamide] | 24.6 | 63.6 | 71.9 | 115
Cc1ccc(-c2nc(N)nc(Nc3ccccc3SSc3ccccc3Nc3nc(N)nc(-c4ccc(C)cc4)n3)n2)cc1 [MTF 451, N2,N2′-(disulfanediylbis(2,1-phenylene))bis(6-(p-tolyl)-1,3,5-triazine-2,4-diamine)] | 26.1 | 23.9 | 10.6 | 12.5
Cc1nc(NC(=N)NC(=N)c2ccc(Cl)cc2)sc1C [MTF 302, 4-chloro-N—(N-(4,5-dimethylthiazol-2-yl)carbamimidoyl)benzimidamide] | 105 | 52.3 | 94.8 | 39.3
Cc1nc(NC(=N)NC(=N)c2ccccc2Br)sc1C [MTF 295, 2-bromo-N—(N-(4,5-dimethylthiazol-2-yl)carbamimidoyl)benzimidamide] | 109 | 37.3 | 66.1 | 39.3
Nc1nc(Nc2ccccc2SSc2ccccc2Nc2nc(N)nc(-c3ccccc3F)n2)nc(-c2ccccc2F)n1 [MTF 452, N2,N2′-(disulfanediylbis(2,1-phenylene))bis(6-(2-fluorophenyl)-1,3,5-triazine-2,4-diamine)] | 43.6 | 60.5 | 22.3 | 40.3
CSc1ccccc1Nc1nc(N)nc(C(Cl)(Cl)Cl)n1 [MTF 316, N2-(2-(methylthio)phenyl)-6-(trichloromethyl)-1,3,5-triazine-2,4-diamine] | 124 | 69.6 | 104 | 48.2
N=C(NC(=N)c1ccncc1)Nc1nc(-c2ccccc2)cs1 [MTF 274, N—(N-(4-phenylthiazol-2-yl)carbamimidoyl)isonicotinimidamide] | 83 | 93 | 84 | 89
Nc1nc(Nc2ccccc2SSc2ccccc2Nc2nc(N)nc(-c3cccc(Br)c3)n2)nc(-c2cccc(Br)c2)n1 [MTF 323, N2,N2′-(disulfanediylbis(2,1-phenylene))bis(6-(3-bromophenyl)-1,3,5-triazine-2,4-diamine)] | 34.6 | 23.5 | 47.4 | 8.3
N=C(NC(=N)c1ccccc1F)Nc1nc2ccccc2s1 [MTF 249, N—(N-(benzo[d]thiazol-2-yl)carbamimidoyl)-2-fluorobenzimidamide] | 25.4 | 10.6 | 14.4 | 8.9
Nc1nc(Nc2ccccc2SSc2ccccc2Nc2nc(N)nc(-c3ccccc3)n2)nc(-c2ccccc2)n1 [MTF 326, N2,N2′-(disulfanediylbis(2,1-phenylene))bis(6-phenyl-1,3,5-triazine-2,4-diamine)] | 27.4 | 27.9 | 12.9 | 6.7
N=C(NC(=N)c1ccncc1)Nc1nc2ccccc2s1 [MTF 253, N—(N-(benzo[d]thiazol-2-yl)carbamimidoyl)isonicotinimidamide] | 27.8 | 6.9 | 14.9 | 4.1
N=C(NC(=N)c1cccnc1)Nc1nc(-c2ccccc2)cs1 [MTF 273, N—(N-(4-phenylthiazol-2-yl)carbamimidoyl)nicotinimidamide] | 46 | 48 | 100 | 100
CC(=O)c1cccc(-c2nc(N)nc(Nc3ccccc3SSc3ccccc3Nc3nc(N)nc(-c4cccc(C(C)=O)c4)n3)n2)c1 [MTF 462, 1,1′-((((disulfanediylbis(2,1-phenylene))bis(azanediyl))bis(6-amino-1,3,5-triazine-4,2-diyl))bis(3,1-phenylene))bis(ethan-1-one)] | 101 | 80 | 4.8 | 44.1
COc1cccc(C(=N)NC(=N)Nc2nc3ccccc3s2)c1 [MTF 342, N—(N-(benzo[d]thiazol-2-yl)carbamimidoyl)-3-methoxybenzimidamide] | 48.6 | 8.6 | 32.2 | 8.6
Cc1csc(NC(=N)NC(=N)c2ccccn2)n1 [MTF 289, N—(N-(4-methylthiazol-2-yl)carbamimidoyl)picolinimidamide] | 81.1 | 90.4 | 78.7 | 58.2
